Results as given in ChEMBL document CHEMBL3792297, “Studies on phenothiazines: New microtubule-interacting compounds with phenothiazine A-ring as potent antineoplastic agents” (Bioorg Med Chem, 2016).

Assays:
Format in all cases: functional
[1] = Growth inhibition of human HL-60(TB) cells after 48 hrs by SRB assay; settings: HL-60, 48 h
[2] = Growth inhibition of human RPMI8226 cells after 48 hrs by SRB assay; settings: RPMI-8226, 48 h
NCI-H460 = test: Growth inhibition of human NCI-H460 cells after 48 hrs by SRB assay; settings: NCI-H460, 48 h
NCI-H522 = test: Growth inhibition of human NCI-H522 cells after 48 hrs by SRB assay; settings: NCI-H522, 48 h
[3] = Growth inhibition of human COLO205 cells after 48 hrs by SRB assay; settings: COLO 205, 48 h
[4] = Growth inhibition of human HCC2998 cells after 48 hrs by SRB assay; settings: HCC 2998, 48 h
[5] = Growth inhibition of human HCT116 cells after 48 hrs by SRB assay; settings: HCT-116, 48 h
[6] = Growth inhibition of human HCT15 cells after 48 hrs by SRB assay; settings: HCT-15, 48 h
HT-29 = test: Growth inhibition of human HT-29 cells after 48 hrs by SRB assay; settings: HT-29, 48 h
KM12 = test: Growth inhibition of human KM12 cells after 48 hrs by SRB assay; settings: KM12, 48 h
M14 = test: Growth inhibition of human M14 cells after 48 hrs by SRB assay; settings: M14, 48 h
MDA-MB-435 = test: Growth inhibition of human MDA-MB-435 cells after 48 hrs by SRB assay; settings: MDA-MB-435, 48 h
SK-MEL-2 = test: Growth inhibition of human SK-MEL-2 cells after 48 hrs by SRB assay; settings: SK-MEL-2, 48 h
[7] = Growth inhibition of human UACC62 cells after 48 hrs by SRB assay; settings: UACC-62, 48 h
[8] = Growth inhibition of human OVCAR3 cells after 48 hrs by SRB assay; settings: OVCAR-3, 48 h
[9] = Growth inhibition of human OVCAR4 cells after 48 hrs by SRB assay; settings: OVCAR-4, 48 h
[10] = Growth inhibition of human OVCAR8 cells after 48 hrs by SRB assay; settings: OVCAR-8, 48 h
[11] = Growth inhibition of human SKOV3 cells after 48 hrs by SRB assay; settings: SK-OV-3, 48 h
[12] = Growth inhibition of human UO31 cells after 48 hrs by SRB assay; settings: UO-31, 48 h
786-0 = test: Growth inhibition of human 786-0 cells after 48 hrs by SRB assay; settings: 786-0, 48 h
[13] = Growth inhibition of human DU145 cells after 48 hrs by SRB assay; settings: DU-145, 48 h
[14] = Growth inhibition of human SF268 cells after 48 hrs by SRB assay; settings: SF-268, 48 h
[15] = Growth inhibition of human SF295 cells after 48 hrs by SRB assay; settings: SF-295, 48 h
[16] = Growth inhibition of human SF539 cells after 48 hrs by SRB assay; settings: SF-539, 48 h
[17] = Growth inhibition of human SNB75 cells after 48 hrs by SRB assay; settings: SNB-75, 48 h
MCF7 = test: Growth inhibition of human MCF7 cells after 48 hrs by SRB assay; settings: MCF7, 48 h
[18] = Growth inhibition of human Hs 578T cells after 48 hrs by SRB assay

Compound | GI50 [1] | GI50 [2] | GI50 (NCI-H460) | GI50 (NCI-H522) | GI50 [3] | GI50 [4] | GI50 [5] | GI50 [6] | GI50 (HT-29) | GI50 (KM12) | GI50 (M14) | GI50 (MDA-MB-435) | GI50 (SK-MEL-2) | GI50 [7] | GI50 [8] | GI50 [9] | GI50 [10] | GI50 [11] | GI50 [12] | GI50 [13] | further results
COc1ccc(C(=O)N2c3ccccc3Sc3ccccc32)c(F)c1 | 325 nM | 921 nM | 485 nM | 403 nM | 445 nM | 2380 nM | 393 nM | 419 nM | 380 nM | 489 nM | 371 nM | 177 nM | 531 nM | 382 nM | 418 nM | 2010 nM | 2200 nM | 4130 nM | 3780 nM | 1400 nM | GI50 (786-0): 675 nM; GI50 [14]: 10100 nM; GI50 [15]: 395 nM; GI50 [16]: 409 nM; GI50 [17]: 288 nM; GI50 (MCF7): 405 nM; GI50 [18]: 377 nM
COc1ccc(C(=O)N2c3ccccc3Sc3ccccc32)cc1F | 305 nM | 336 nM | 340 nM | 114 nM | 236 nM | 470 nM | 358 nM | 287 nM | 283 nM | 203 nM | 232 nM | 36 nM | 352 nM | 128 nM | 249 nM | 1450 nM | 420 nM | 306 nM | 725 nM | 3610 nM | GI50 (786-0): 609 nM; GI50 [14]: 799 nM; GI50 [15]: 251 nM; GI50 [16]: 218 nM; GI50 [17]: 270 nM; GI50 (MCF7): 346 nM; GI50 [18]: 193 nM
COc1ccc(C(=O)N2c3ccccc3Sc3ccccc32)c(OC)c1 | 297 nM | 523 nM | 406 nM | 343 nM | 333 nM | 1490 nM | 452 nM | 464 nM | 385 nM | 438 nM | 359 nM | 212 nM | 585 nM | 321 nM | 322 nM | 3170 nM | 749 nM | 715 nM | 739 nM | 491 nM | GI50 (786-0): 480 nM; GI50 [14]: 853 nM; GI50 [15]: 484 nM; GI50 [16]: 333 nM; GI50 [17]: 209 nM; GI50 (MCF7): 450 nM; GI50 [18]: 482 nM
COc1ccc(C(=O)N2c3ccccc3Sc3ccccc32)c(C(F)(F)F)c1 | 252 nM | 595 nM | 383 nM | 320 nM | 319 nM | 467 nM | 505 nM | 405 nM | 362 nM | 413 nM | 343 nM | 176 nM | 677 nM | 438 nM | 332 nM | 1980 nM | 592 nM | 794 nM | 2620 nM | 433 nM | GI50 [14]: 3040 nM; GI50 [15]: 372 nM; GI50 [16]: 270 nM; GI50 [17]: 264 nM; GI50 (MCF7): 411 nM; GI50 [18]: 472 nM
O=C(c1ccc2c(c1)Sc1ccccc1N2)c1c[nH]c2ccccc12 | 398 nM | 428 nM | 347 nM | 338 nM | 285 nM | 876 nM | 378 nM | 408 nM | 358 nM | 311 nM | 319 nM | 98 nM | 309 nM | 356 nM | 360 nM | 4110 nM | 556 nM | 380 nM | 510 nM | 679 nM | GI50 (786-0): 672 nM; GI50 [14]: 798 nM; GI50 [15]: 314 nM; GI50 [16]: 258 nM; GI50 [17]: 249 nM; GI50 (MCF7): 312 nM; GI50 [18]: 239 nM
